According to patent US4939175A, “Use of N,N-dimethyl-1-[1-(4-chlorophenyl)cyclobutyl]-3-methylbutylamine” (priority 1988, dated 1990):
Like-named read-outs stand apart in the source and are kept apart here.

How the values were obtained:
[1] = Acute toxicity, oral, mice; parameters: species or system SlC:ddy male mice; settings: mouse, in vivo, read-out: Number of dead mice per 10 mice
Description: SlC:ddy male mice (10 heads/group) were used.
After the oral administration of the test smaple, desipramine was used as the test drug, to the mice, the number of the dead mice was counted at 0.5, 1, 2, 4, 18 and 24 hours respectively after the oral administration.

[2] = tested on: memory defect artificially induced by electroconvulsive shock in mice; experiment: Memory defect artificially induced by electroconvulsive shock in mice (step-through test); type: in vivo, C 57 BL/6 male mice; settings: ECS +; for Number of mice showing latency longer than 300 seconds: 1 hour before testing trial, 10 mice; for Amnestic syndrome rate: control ECS + 80, ECS - 40
Description: […]. The test was carried out by using a box divided into two rooms (light and dark). The dark room (23.5 cm in height, 12 cm in width and 24 cm in length) was surrounded by black inner walls and provided with a stainless steel bar on the floor to give the mouse an electric shock. The light room (triangular in shape with 15 cm in height, 13 cm in bottom side length and 12 cm in oblique-side length) was surrounded by transparent walls except for the partition wall, provided with a guillotine door (5 cm in height and 3 cm in width) at the center of the partition wall, and illuminated with a 100 Watt electric bulb at a position of 50 cm above the floor.
The test was carried out according to the procedures as follows:
After the mouse was put in the light room, the guillotine door was opened. When the limbs of the mouse entered into the dark room, the door was closed. After keeping the mouse for 10 seconds in the dark room, it was brought back to the home cage.
The mouse was put in the light room at the time of 30 minutes after the taming trial, and then the guillotine door was opened. When the limbs of the mouse entered into the dark room, the door was closed and 0.4 mA of electric shock was applied to the limbs of the mouse for 3 seconds. Then, the mouse was brought back to the home cage.
The mouse was put in the light room at the time of 24 hours after the acquisition trial, and then the guillotine door was opened.
Electroconvulsive shock (30 mA, 0.5 second) was applied to the mouse at its ears immediately after the acquisition trial, which caused tetany on the mouse. The mice, which survived after the righting reflex had disappeared,were subjected to the testing trial 24 hours later.
The test compound was dissolved in distilled water, and the solution was orally administered, in a dose shown in Table 1 to each group consisting of 10 heads at the time of one hour before the testing trial.
The testing trial (3) was conducted at one hour after the test compound administration, and the reaction latency was examined for each test mouse. The obtained results are shown in Table 1, and Amnestic syndrome rate (%) is expressed as follows: [formula]

CC(C)CC(N(C)C)C1(c2ccc(Cl)cc2)CCC1.Cl (centres unmarked) [Test compound, N,N-dimethyl-1-[1-(4-chlorophenyl)cyclobutyl]3-methylbutylamine hydrochloride]
mortality at 0.5 h ([1]; 200 mg/kg oral): 0% | mortality at 1 h ([1]; 200 mg/kg oral): 10% | mortality at 2 h ([1]; 200 mg/kg oral): 10% | mortality at 4 h ([1]; 200 mg/kg oral): 10% | mortality at 18 h ([1]; 200 mg/kg oral): 20% | mortality at 24 h ([1]; 200 mg/kg oral): 20% | mortality at 0.5 h ([1]; 800 mg/kg oral): 40% | mortality at 1 h ([1]; 800 mg/kg oral): 50% | mortality at 2 h ([1]; 800 mg/kg oral): 50% | mortality at 4 h ([1]; 800 mg/kg oral): 60% | mortality at 18 h ([1]; 800 mg/kg oral): 90% | mortality at 24 h ([1]; 800 mg/kg oral): 90% | Number of mice showing latency longer than 300 seconds ([2]; 0.3 mg/kg oral): 4 | Amnestic syndrome rate ([2]; 0.3 mg/kg oral): 60% | Number of mice showing latency longer than 300 seconds ([2]; 1.0 mg/kg oral): 3 | Amnestic syndrome rate ([2]; 1.0 mg/kg oral): 70% | Number of mice showing latency longer than 300 seconds ([2]; 3.0 mg/kg oral): 7 | Amnestic syndrome rate ([2]; 3.0 mg/kg oral): 30% | Number of mice showing latency longer than 300 seconds ([2]; 10.0 mg/kg oral): 9 | Amnestic syndrome rate ([2]; 10.0 mg/kg oral): 10%
